Patent publication US9388162B2, “Substituted morphinans and the use thereof” (Purdue Pharma L.P., priority 2012, dated 2016)

Tests used:
[1] = biological target: μ-opioid receptors (Homo sapiens (Human), UniProt P35372); assay: μ-opioid receptor [35S]GTPγS functional assay, U-2 OS cells; assay type: biochemical; conditions: μ GTP; for EC50: read-out: Activity Response μ EC50 (nM) [mean ± SEM]; for Emax: read-out: Activity Response μ Emax (%)
Protocol: [^35S]GTPγS functional assays were conducted using freshly thawed μ-receptor membranes prepared from a cell line expressing recombinant μ opioid receptor in a HEK-293, CHO or U-2 OS cell background or purchased from a commercial source (Perkin Elmer, Shelton, Conn.; or DiscovRx, Fremont, Calif.). Assay reactions were prepared by sequentially adding the following reagents to binding buffer (100 mM NaCl, 10 mM MgCl2, 20 mM HEPES, pH 7.4) on ice (final concentrations indicated): membrane protein (0.026 mg/mL), saponin ([…]), GDP ([…]) and [^35S]GTPγS (0.20 nM; Perkin Elmer, Shelton, Conn.). The prepared membrane solution (190 μl/well) was transferred to 96-shallow well polypropylene plates containing 10 μl of 20× concentrated stock solutions of the agonist [D-Ala^2, N-methyl-Phe^4 Gly-ol^5]-enkephalin (DAMGO) prepared in dimethyl sulfoxide (DMSO). Plates were incubated for 30 min at about 25° C. with shaking. Reactions were terminated by rapid filtration onto 96-well Unifilter GF/B filter plates (Perkin Elmer, Shelton, Conn.) using a 96-well tissue harvester (Perkin Elmer, Shelton, Conn.) followed by three filtration washes with 200 μl of ice-cold wash buffer (10 mM NaH2PO4, 10 mM Na2HPO4, pH 7.4). Filter plates were subsequently dried at 50° C. for 2-3 hours. BetaScint scintillation cocktail (Perkin Elmer, Shelton, Conn.) was added (50 μl/well) and plates were counted using a Packard Top-Count for 1 min/well. Data were analyzed using the sigmoidal dose-response curve fitting functions in GraphPad PRISM v. 3.0, or an in-house function for non-linear, sigmoidal dose-response curve-fitting.
μ GTP EC50 is the concentration of a compound providing 50% of the maximal response for the compound at a μ-opioid receptor.
μ GTP Emax (%) is the maximal effect elicited by a compound relative to the effect elicited by DAMGO, a standard μ agonist. Generally, the μ GTP Emax (%) value measures the efficacy of a compound to treat or prevent pain or other Conditions.
(§1) The following tables provide results on the efficacy of binding and activity response of exemplified Compounds of the Invention at the μ- and κ-opioid receptors. In TABLE 3, binding affinity of certain Compounds of the Invention to the μ- and κ-opioid receptors was determined as described above. In TABLE 4, activity response of certain Compounds of the Invention to the μ- and κ-opioid receptors was determined as described above for functional assays using HEK-293 cells. In TABLE 5, activity response of certain Compounds of the Invention to the μ- and κ-opioid receptors was determined as described above using U-2 OS cells.

[2] = biological target: κ opioid receptor (Homo sapiens (Human), UniProt P41145); assay: κ-opioid receptor [35S]GTPγS functional assay, U-2 OS cells; assay type: biochemical; conditions: κ GTP; for EC50: read-out: Activity Response κ EC50 (nM) [mean ± SEM]; for Emax: relative to U69,593, read-out: Activity Response κ Emax (%)
Protocol: Membranes from HEK-293 cells, CHO or U-2 OS cells expressing the recombinant human kappa opioid receptor (κ) were prepared by lysing cells in ice cold hypotonic buffer (2.5 mM MgCl2, 50 mM HEPES, pH 7.4) (10 mL/10 cm dish) followed by homogenization with a tissue grinder/Teflon pestle. Membranes were collected by centrifugation at 30,000×g for 15 min at 4° C. and pellets were resuspended in hypotonic buffer to a final concentration of 1-3 mg/mL. Protein concentrations were determined using the BioRad protein assay reagent with bovine serum albumen as standard. Aliquots of κ receptor membranes were stored at −80° C.
Functional [^35S]GTPγS binding assays were conducted as follows. κ opioid receptor membrane solution was prepared by sequentially adding final concentrations of 0.026 μg/μl κ membrane protein (in-house), 10 μg/mL saponin, 3 μM GDP and 0.20 nM [^35S]GTPγS to binding buffer (100 mM NaCl, 10 mM MgCl2, 20 mM HEPES, pH 7.4) on ice. The prepared membrane solution (190 μl/well) was transferred to 96-shallow well polypropylene plates containing 10 μl of 20× concentrated stock solutions of agonist prepared in DMSO. Plates were incubated for 30 min at a temperature of about 25° C. with shaking. Reactions were terminated by rapid filtration onto 96-well Unifilter GF/B filter plates (Perkin Elmer, Shelton, Conn.) using a 96-well tissue harvester (Packard) and followed by three filtration washes with 200 μl ice-cold binding buffer (10 mM NaH2PO4, 10 mM Na2HPO4, pH 7.4). Filter plates were subsequently dried at 50° C. for 2-3 hours. Fifty μl/well scintillation cocktail (Perkin Elmer, Shelton, Conn.) was added and plates were counted in a Packard Top-Count for 1 min/well.
κ GTP EC50 is the concentration of a compound providing 50% of the maximal response for the compound at a κ receptor.
κ GTP Emax (%) is the maximal effect elicited by a compound relative to the effect elicited by U69,593.
as §1, with “In” for “The following tables provide results on the efficacy of binding and activity response of exemplified Compounds of the Invention at the μ- and κ-opioid receptors. In”

SMILES: COc1ccc2c(c1)[C@]13CCN(CC4CC4)[C@H](C2)[C@]1(O)C[C@H](OCC(C)C)C(=O)C3 [Compound 23, (4bR,7S,8aS,9R)-11-(cyclopropylmethyl)-8a-hydroxy-7-isobutoxy-3-methoxy-8,8a,9,10-tetrahydro-5H-9,4b-(epiminoethano)phenanthren-6(7H)-one]
- EC50 [1]: 2100 ± 735 nM
- Activity Response μ Emax (%) ([1]; relative to DAMGO): 15.7 ± 3.71%
- EC50 [2]: 5560 ± 481 nM
- Activity Response κ Emax (%) ([2]; relative to U69,593): 90.0 ± 1.00%

SMILES: COc1ccc2c(c1)[C@]13CCN(CC4CC4)[C@H](C2)[C@]1(O)C[C@H](O)C(=O)C3 [Compound 25, (4bR,7S,8aS,9R)-11-(cyclopropylmethyl)-7,8a-dihydroxy-3-methoxy-8,8a,9,10-tetrahydro-5H-9,4b-(epiminoethano)phenanthren-6(7H)-one]
- EC50 [1]: 578 ± 91.8 nM
- Emax ([1]; relative to DAMGO): 36 ± 3.51%
- EC50 [2]: 876 ± 18.8 nM
- Emax [2]: 106 ± 3.28%

SMILES: COc1ccc2c(c1)[C@]13CCN(CC4CC4)[C@H](C2)[C@]1(O)C[C@H](NC(=O)C(C)C)C(=O)C3 [Compound 26, N-((4bR,7S,8aS,9R)-11-(cyclopropylmethyl)-8a-hydroxy-3-methoxy-6-oxo-6,7,8,8a,9,10-hexahydro-5H-9,4b-(epiminoethano)phenanthren-7-yl)isobutyramide]
- EC50 [1]: 7110 ± 633 nM
- Emax ([1]; relative to DAMGO): 31 ± 2.08%
- EC50 [2]: 7210 ± 438 nM
- Emax [2]: 104 ± 2.52%

SMILES: CC(C)C(=O)N[C@H]1C[C@@]2(O)[C@H]3Cc4ccc(O)cc4[C@@]2(CCN3CC2CC2)CC1=O [Compound 27, N-((4bR,7S,8aS,9R)-11-(cyclopropylmethyl)-3,8a-dihydroxy-6-oxo-6,7,8,8a,9,10-hexahydro-5H-9,4b-(epiminoethano)phenanthren-7-yl)isobutyramide]
- EC50 [1]: > 200000 nM
- Emax ([1]; relative to DAMGO): 8 ± 2.12%
- EC50 [2]: 24.7 ± 3.18 nM
- Emax [2]: 92.7 ± 3.18%

SMILES: CC(=O)N[C@H]1C[C@@]2(O)[C@H]3Cc4ccc(O)cc4[C@@]2(CCN3CC2CC2)CC1=O [Compound 28, N-((4bR,7S,8aS,9R)-11-(cyclopropylmethyl)-3,8a-dihydroxy-6-oxo-6,7,8,8a,9,10-hexahydro-5H-9,4b-(epiminoethano)phenanthren-7-yl)acetamide]
- EC50 [1]: > 200000 nM
- Emax ([1]; relative to DAMGO): 2.5%
- EC50 [2]: 27.1 ± 3.29 nM
- Emax [2]: 86.7 ± 2.4%

SMILES: CCC(=O)N[C@H]1C[C@@]2(O)[C@H]3Cc4ccc(O)cc4[C@@]2(CCN3CC2CC2)CC1=O [Compound 29, N-((4bR,7S,8aS,9R)-11-(cyclopropylmethyl)-3,8a-dihydroxy-6-oxo-6,7,8,8a,9,10-hexahydro-5H-9,4b-(epiminoethano)phenanthren-7-yl)propionamide]
- EC50 [1]: > 200000 nM
- Emax ([1]; relative to DAMGO): 7.25 ± 1.89%
- EC50 [2]: 14.6 ± 1.86 nM
- Emax [2]: 98.7 ± 5.21%

SMILES: CC(C)CCC(=O)N[C@H]1C[C@@]2(O)[C@H]3Cc4ccc(O)cc4[C@@]2(CCN3CC2CC2)CC1=O [Compound 30, N-((4bR,7S,8aS,9R)-11-(cyclopropylmethyl)-3,8a-dihydroxy-6-oxo-6,7,8,8a,9,10-hexahydro-5H-9,4b-(epiminoethano)phenanthren-7-yl)-4-methylpentanamide]
- EC50 [1]: 9.61 ± 0.83 nM
- Emax ([1]; relative to DAMGO): 51 ± 2.65%
- EC50 [2]: 1.61 ± 0.12 nM
- Emax [2]: 97.7 ± 3.18%

SMILES: CC(C)CCCC(=O)N[C@H]1C[C@@]2(O)[C@H]3Cc4ccc(O)cc4[C@@]2(CCN3CC2CC2)CC1=O [Compound 31, N-((4bR,7S,8aS,9R)-11-(cyclopropylmethyl)-3,8a-dihydroxy-6-oxo-6,7,8,8a,9,10-hexahydro-5H-9,4b-(epiminoethano)phenanthren-7-yl)-5-methylhexanamide]
- EC50 [1]: 9.65 ± 0.22 nM
- Emax ([1]; relative to DAMGO): 73.7 ± 2.6%
- EC50 [2]: 2.59 ± 0.14 nM
- Emax [2]: 90.7 ± 6.57%

SMILES: CC(C)(C)C(=O)N[C@H]1C[C@@]2(O)[C@H]3Cc4ccc(O)cc4[C@@]2(CCN3CC2CC2)CC1=O [Compound 32, N-((4bR,7S,8aS,9R)-11-(cyclopropylmethyl)-3,8a-dihydroxy-6-oxo-6,7,8,8a,9,10-hexahydro-5H-9,4b-(epiminoethano)phenanthren-7-yl)pivalamide]
- EC50 [1]: 18.6 ± 8.05 nM
- Emax ([1]; relative to DAMGO): 11.3 ± 0.88%
- EC50 [2]: 17.5 ± 2.66 nM
- Emax [2]: 113 ± 3.61%

SMILES: CC(C)CC(=O)N[C@H]1C[C@@]2(O)[C@H]3Cc4ccc(O)cc4[C@@]2(CCN3CC2CC2)CC1=O [Compound 33, N-((4bR,7S,8aS,9R)-11-(cyclopropylmethyl)-3,8a-dihydroxy-6-oxo-6,7,8,8a,9,10-hexahydro-5H-9,4b-(epiminoethano)phenanthren-7-yl)-3-methylbutanamide]
- EC50 [1]: > 200000 nM
- Emax ([1]; relative to DAMGO): 2.5%
- EC50 [2]: 36.1 ± 3.14 nM
- Emax [2]: 52 ± 4.93%

SMILES: O=C(N[C@H]1C[C@@]2(O)[C@H]3Cc4ccc(O)cc4[C@@]2(CCN3CC2CC2)CC1=O)C1CC1 [Compound 34, N-((4bR,7S,8aS,9R)-11-(cyclopropylmethyl)-3,8a-dihydroxy-6-oxo-6,7,8,8a,9,10-hexahydro-5H-9,4b-(epiminoethano)phenanthren-7-yl)cyclopropanecarboxamide]
- EC50 [1]: > 200000 nM
- Emax ([1]; relative to DAMGO): 6.33 ± 2.19%
- EC50 [2]: 12.6 ± 2.04 nM
- Emax [2]: 101 ± 3.33%

SMILES: O=C(N[C@H]1C[C@@]2(O)[C@H]3Cc4ccc(O)cc4[C@@]2(CCN3CC2CC2)CC1=O)C1CCCC1 [Compound 35, N-((4bR,7S,8aS,9R)-11-(cyclopropylmethyl)-3,8a-dihydroxy-6-oxo-6,7,8,8a,9,10-hexahydro-5H-9,4b-(epiminoethano)phenanthren-7-yl)cyclopentanecarboxamide]
- EC50 [1]: > 200000 nM
- Emax ([1]; relative to DAMGO): 2%
- EC50 [2]: 13.6 ± 1.04 nM
- Emax [2]: 85.7 ± 2.4%

SMILES: O=C(N[C@H]1C[C@@]2(O)[C@H]3Cc4ccc(O)cc4[C@@]2(CCN3CC2CC2)CC1=O)c1ccccc1 [Compound 36, N-((4bR,7S,8aS,9R)-11-(cyclopropylmethyl)-3,8a-dihydroxy-6-oxo-6,7,8,8a,9,10-hexahydro-5H-9,4b-(epiminoethano)phenanthren-7-yl)benzamide]
- EC50 [1]: 12.7 ± 2.92 nM
- Emax ([1]; relative to DAMGO): 20.3 ± 0.33%
- EC50 [2]: 4.28 ± 0.6 nM
- Emax [2]: 99 ± 4.73%

SMILES: COc1ccc2c(c1)[C@]13CCN(C)[C@H](C2)[C@]1(O)C[C@H](CC(=O)O)C(=O)C3 [Compound 60, 2-((4bR,7R,8aS,9R)-8a-hydroxy-3-methoxy-11-methyl-6-oxo-6,7,8,8a,9,10-hexahydro-5H-9,4b-(epiminoethano)phenanthren-7-yl)acetic acid]
- EC50 [2]: 14900 ± 1320 nM
- Emax [2]: 84.3 ± 0.67%
